This note sets out measurements from US12263139B2, “Use of cannabidiol in the treatment of tuberous sclerosis complex” (Jazz Pharmaceuticals Research UK Limited, priority 2017, dated 2025).

Structures are written as SMILES.

The test system of one test is Tsc2−/− MEFs. Description: Matrigel cell invasion assay in Tsc2−/− MEFs. The class given is cell-based, mouse. As for the experimental part: (§1) (ii) Tsc2−/− p53−/− and Tsc2+/+p53−/− mouse embryonic fibroblast (MEF) cell lines (now referred to as Tsc2−/− and Tsc2+/+, respectively).
(§2) Tsc2−/− and Tsc2+/+ cell lines were cultured and maintained in DMEM supplemented with 10% (v/v) FBS and 1% (v/v) penicillin-streptomycin in a humidified incubator (5% CO2 at 37° C.). The AML −/− cell lines were cultured and maintained in DMEM supplemented with 15% (v/v) FBS and 1% (v/v) penicillin-streptomycin in a humidified incubator (5% CO2 at 37° C.). For hypoxia, cells were put into a Binder CB150 hypoxic chamber set at 1% 02 for the indicated time points
The stock concentration of CBD was made to 20 mM in dimethyl sulfoxide (DMSO). CBD was added to culture media to final concentrations of either 5 μM or 10 μM, as indicated). The final concentration of the DMSO in the cell culture medium was at a maximum level of 0.05% (v/v).
Transwell permeable supports with 6.5 mm diameter inserts, 8.0 μm pore size, and a polycarbonate membrane were used to perform migration assays. Cells were grown in a 75-cm2 flask with standard medium (10% (v/v) FBS) until confluent. […] Cells were counted using a haemocytometer. […] The percentage of adherent cells was then determined by fixing the cells with methanol and acetone (1:1) for 20 minutes at 20° C. […] Crystal Violet stained cells were eluted with 1% (w/v) SDS and the absorbance was read at 550 nm on a Genova MK3 Lifescience. […]

In test [1] the test system is AML 621-101 cells. In words: Wound healing assay in AML cells. It counts as cell-based. As to the method:
(§3) (i) Angiomyolipomas (AML) cells derived from a Tuberous Sclerosis Complex patient (621-101 cell-line), with a known loss of function of TSC2. […] Zeocin™ was purchased from LifeTechnologies (cat no: R25001) and was used to originally generate the stable cell line (by Prof. Lisa Henske) over two weeks of Zeocin™ selection and then for continued maintenance of the cells in tissue culture (at 100 μg/ml).
as §2
(§4) The stock concentration of CBD was made to 20 mM in dimethyl sulfoxide (DMSO). […] The final concentration of the DMSO in the cell culture medium was at a maximum level of 0.05% (v/v).
Cells were seeded in 60 mm plates and left to reach 100% confluency. Cells were then synchronised in 1% (v/v) FBS DMEM for 24 h and “wounded” with a pipette tip. Dead cells were removed with PBS wash and then subsequently replaced with DMEM (10% (v/v) FBS). […]

The subject of test [2] is Tsc2−/− Mouse Embryonic Fibroblast (MEF) cell lines. In words: Wound healing assay in Tsc2−/− MEFs. The class given is cell-based. The conditions noted are these: CBD at 10 and 20 μM; FIG. 1 (A). As for the experimental part: as §1, §2, §4
Cells were seeded in 60 mm plates and left to reach 100% confluency. Cells were then synchronised in 1% (v/v) FBS DMEM for 24 h and “wounded” with a pipette tip. Dead cells were removed with PBS wash and then subsequently replaced with DMEM (10% (v/v) FBS). Cells were pre-treated for 30 min with either rapamycin, c-MET or STAT3 inhibitors (where indicated) before cytokine stimulation. Pictures were taken before treatment and 12-18 h after treatment using an inverted AMG EVOS microscope equipped with an Olympus camera.

Test [3] concerns AML 621-101 cells. Description: Matrigel cell invasion assay in AML 621-101 cells. It counts as cell-based. To be noted: CBD at both 5 μM and 10 μM. As for the experimental part: as §3
Tsc2−/− and Tsc2+/+ cell lines were cultured and maintained in DMEM supplemented with 10% (v/v) FBS and 1% (v/v) penicillin-streptomycin in a humidified incubator (5% CO2 at 37° C.). […]
(§5) Transwell permeable supports with 6.5 mm diameter inserts, 8.0 μm pore size, and a polycarbonate membrane were used to perform migration assays. […] Cells were counted using a haemocytometer. […] The percentage of adherent cells was then determined by fixing the cells with methanol and acetone (1:1) for 20 minutes at 20° C. […] Crystal Violet stained cells were eluted with 1% (w/v) SDS and the absorbance was read at 550 nm on a Genova MK3 Lifescience.
For invasion assays, a similar protocol was used; however, the top chamber of the Transwell was filled with […] of BD Matrigel Basement Membrane Matrix (1 mg/mL). […] The number of invaded cells was determined by fixation staining and elution of crystal violet with 1% (w/v) SDS, as before.

The subject of test [4] is AML 621-101 cells. In words: Transwell cell migration assay in AML 621-101 cells. It counts as cell-based. As to the method:
as §3, §2
The stock concentration of CBD was made to 20 mM in dimethyl sulfoxide (DMSO). […]
as §5

Test [5] relates to HIF-1α protein. Description: Western blot of hypoxia induced HIF-1α in Tsc2−/− MEFs. To be noted: CBD at 10 μM. It counts as cell-based, mouse. As to the method:
as §2
(§6) Cells were washed in Phosphate Buffered Saline (PBS) and then lysed directly in sample buffer (62.5 mM Tris HCL, 50 mM DTT, 2% SDS (w/v), 10% Glycerol (w/v), 0.1% Bromophenol blue (w/v) pH 7.6) and sonicated for 5×20 s cycles on full power (30 amplitude microns). Samples were boiled at 95° C. for 10 min. Lysates were resolved by SDS-PAGE and proteins were transferred to polyvinylidene difluoride membranes.
(§7) Membranes were blocked in 5% (w/v) dry milk powder dissolved in Tris-buffered saline containing 0.1% (v/v) Tween, then probed with primary antibody and horse radish peroxidase-conjugated secondary antibody. Proteins were visualized using Enhanced Chemiluminescent solution and Hyperfilm. Antibodies towards ribosomal protein S6 (rpS6), phospho-rpS6 (Ser235/236) were purchased from Cell Signaling Technology. Anti-HIF-1α was obtained from BD transduction laboratories. Statistical Analysis […]

Test [6] deals with mTORC1 signalling (rpS6 phosphorylation). In words: Western blot of rpS6 phosphorylation (mTORC1 signalling) in Tsc2−/− MEFs. The class given is cell-based, mouse. The conditions noted are these: CBD at 5 μM, 6 h of treatment. As for the experimental part:
as §6
Membranes were blocked in 5% (w/v) dry milk powder dissolved in Tris-buffered saline containing 0.1% (v/v) Tween, then probed with primary antibody and horse radish peroxidase-conjugated secondary antibody. Proteins were visualized using Enhanced Chemiluminescent solution and Hyperfilm. Antibodies towards ribosomal protein S6 (rpS6), phospho-rpS6 (Ser235/236) were purchased from Cell Signaling Technology. Anti-HIF-1α was obtained from BD transduction laboratories. Statistical Analysis
Western blotting was carried out to determine whether CBD could impair mTORC1 signalling (using rpS6 phosphorylation as a readout of mTORC1 signalling).

Test [7] has as its system HIF-1α protein. Description: Western blot of hypoxia induced HIF-1α in AML 621-101. It counts as cell-based. The conditions noted are these: CBD at 10 μM. As for the experimental part:
as §2, §6, §7

Consider `C=C(C)[C@@H]1CCC(C)=C[C@H]1c1c(O)cc(CCCCC)cc1O` [CBD, Cannabidiol], for which the cell invasion entry was “restoring invasion to the level of the Tsc2+/+ control cells” in the test on Tsc2−/− MEFs (5 μM CBD), “more robust effect” in the test with Tsc2−/− MEFs (10 μM CBD) and “significantly block” in the test on AML 621-101 cells [3]. The “reduction of wound closure” value is 60% in the test on AML 621-101 cells [1] (20 μM CBD); “effective at reducing wound closure” in the test with AML 621-101 cells [1] (5, 10 and 20 μM CBD, FIG. 1 (B)). In test [2], the “block of wound closure” value is recorded as “as effective as rapamycin”. Besides, in the test with AML 621-101 cells [4] (10 μM CBD), the “cell migration compared with rapamycin” value is listed as “reduced cell migration to a significantly greater extent than rapamycin”. In addition, the cell migration result with AML 621-101 cells [4] (CBD at both 5 μM and 10 μM) is “significantly block”. Besides, the “hypoxia induced expression of HIF-1α protein” value in the test with HIF-1α protein [5] and with HIF-1α protein [7] was “sufficient to block hypoxia induced expression of HIF-1α protein” throughout. In addition, in test [6], the rpS6 phosphorylation result is recorded as “inhibited rpS6 phosphorylation”.
